Laboratory results reported in patent publication US20220073536A1 (Rigel Pharmaceuticals, Inc., priority 2003, published 2022).

Tested on: cultured human mast cells (CHMC)
Test: CHMC low cell density IgE activation: tryptase assay
Type: cell-based
Conditions: Homo sapiens, Mast cell, low cell density CHMC, IgE activation, tryptase, 3 pt; read-out: LD Tryptase, CHMC, IgE, 3 pt
Procedure, shortened: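 CHMC were seeded at 1000–1500 cells/well in MT buffer and incubated 1 hr at 37 °C. They were then stimulated with anti-IgE for 30 min at 37 °C, with unstimulated wells as controls. Released tryptase in the supernatant was measured with a fluorogenic substrate after 30 min at room temperature.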

IC50, > 10 µM:
Fc1cnc(Nc2ccc3cnn(CC4CCCCC4)c3c2)nc1Nc1ccc(Cl)c(Cl)c1 [Compound 723, N2-[1-(Cyclohexylmethyl)indazol-6-yl]-N4-(3,4-dichlorophenyl)-5-fluoro-2,4-pyrimidinediamine]

IC50, < 10 µM:
CCCn1ncc2cc(Nc3ncc(F)c(Nc4ccc(Cl)c(Cl)c4)n3)ccc21 [Compound 703, N4-(3,4-Dichlorophenyl)-5-fluoro-N2-(1-n-propylindazol-5-yl)-2,4-pyrimidinediamine]
CCCn1ncc2ccc(Nc3ncc(F)c(Nc4ccc(Cl)c(Cl)c4)n3)cc21 [Compound 707, N4-(3,4-Dichlorophenyl)-5-fluoro-N2-(1-n-propylindazol-6-yl)-2,4-pyrimidinediamine]
CCCCn1ncc2cc(Nc3ncc(F)c(Nc4ccc(OC)c(Cl)c4)n3)ccc21 [Compound 710, N2-(1-n-Butylindazol-5-yl)-N4-(3-chloro-4-methoxyphenyl)-5-fluoro-2,4-pyrimidinediamine]
CCCCn1ncc2cc(Nc3ncc(F)c(Nc4ccc(Cl)c(Cl)c4)n3)ccc21 [Compound 711, N2-(1-n-Butylindazol-5-yl)-N4-(3,4-dichlorophenyl)-5-fluoro-2,4-pyrimidinediamine]
CCCCn1ncc2cc(Nc3ncc(F)c(Nc4ccc(F)c(OC)c4)n3)ccc21 [Compound 713, N2-(1-n-Butylindazol-5-yl)-5-fluoro-N4-(4-fluoro-3-methoxyphenyl)-2,4-pyrimidinediamine]
CCCCn1ncc2ccc(Nc3ncc(F)c(Nc4ccc(Cl)c(Cl)c4)n3)cc21 [Compound 715, N2-(1-n-Butylindazol-6-yl)-N4-(3,4-dichlorophenyl)-5-fluoro-2,4-pyrimidinediamine]
CCCCn1ncc2ccc(Nc3ncc(F)c(Nc4ccc(F)c(OC)c4)n3)cc21 [Compound 717, N2-(1-n-Butylindazol-6-yl)-5-fluoro-N4-(4-fluoro-3-methoxyphenyl)-2,4-pyrimidinediamine]
COc1ccc(Nc2nc(Nc3ccc4c(cnn4CC4CCCCC4)c3)ncc2F)cc1Cl [Compound 718, N4-(3-Chloro-4-methoxyphenyl)-N2-[1-(cyclohexylmethyl)indazol-5-yl]-5-fluoro-2,4-pyrimidinediamine]
Fc1cnc(Nc2ccc3c(cnn3CC3CCCCC3)c2)nc1Nc1ccc(Cl)c(Cl)c1 [Compound 719, N2-[1-(Cyclohexylmethyl)indazol-5-yl]-N4-(3,4-dichlorophenyl)-5-fluoro-2,4-pyrimidinediamine]
COc1cc(Nc2nc(Nc3ccc4c(cnn4CC4CCCCC4)c3)ncc2F)ccc1F [Compound 721, N2-[1-(Cyclohexylmethyl)indazol-5-yl)-5-fluoro-N4-(4-fluoro-3-methoxyphenyl)-2,4-pyrimidinediamine]
COc1ccc(Nc2nc(Nc3ccc4cnn(CC5CCCCC5)c4c3)ncc2F)cc1Cl [Compound 722, N4-(3-Chloro-4-methoxyphenyl)-N2-[1-(cyclohexylmethyl)indazol-6-yl]-5-fluoro-2,4-pyrimidinediamine]
COc1cc(Nc2nc(Nc3ccc4cnn(CC5CCCCC5)c4c3)ncc2F)ccc1F [Compound 725, N2-[1-(Cyclohexylmethyl)indazol-6-yl)-5-fluoro-N4-(4-fluoro-3-methoxyphenyl)-2,4-pyrimidinediamine]
COc1ccc(Nc2nc(Nc3ccc4c(cnn4CC4CCC4)c3)ncc2F)cc1Cl [Compound 726, N4-(3-Chloro-4-methoxyphenyl)-N2-[1-(cyclobutylmethyl)indazol-5-yl]-5-fluoro-2,4-pyrimidinediamine]
Fc1cnc(Nc2ccc3c(cnn3CC3CCC3)c2)nc1Nc1ccc(Cl)c(Cl)c1 [Compound 727, N2-[1-(Cyclobutylmethyl)indazol-5-yl]-N4-(3,4-dichlorophenyl)-5-fluoro-2,4-pyrimidinediamine]
COc1ccc(Nc2nc(Nc3ccc4cnn(CC5CCC5)c4c3)ncc2F)cc1Cl [Compound 730, N4-(3-Chloro-4-methoxyphenyl)-N2-[1-(cyclobutylmethyl)indazol-6-yl]-5-fluoro-2,4-pyrimidinediamine]

Same assay, conditions: Homo sapiens, Mast cell, low cell density CHMC, IgE activation, tryptase, 8 pt; read-out: LD Tryptase, CHMC, IgE, 8 pt

IC50, < 10 µM:
CCCn1ncc2cc(Nc3ncc(F)c(Nc4ccc(OC)c(Cl)c4)n3)ccc21 [Compound 702, N4-(3-Chloro-4-methoxyphenyl)-5-fluoro-N2-(1-n-propylindazol-5-yl)-2,4-pyrimidinediamine]
CCCn1ncc2cc(Nc3ncc(F)c(Nc4ccc5c(c4)NC(=O)C(C)(C)O5)n3)ccc21 [Compound 704, N4-(2,2-Dimethyl-3-oxo-4H-benz[1,4]oxazin-6-yl)-5-fluoro-N2-(1-n-propylindazol-5-yl)-2,4-pyrimidinediamine]
CCCn1ncc2cc(Nc3ncc(F)c(Nc4ccc(F)c(OC)c4)n3)ccc21 [Compound 705, 5-Fluoro-N4-(4-fluoro-3-methoxyphenyl)-N2-(1-n-propylindazol-5-yl)-2,4-pyrimidinediamine]
CCCn1ncc2ccc(Nc3ncc(F)c(Nc4ccc(Cl)c(Cl)c4)n3)cc21 [Compound 707, N4-(3,4-Dichlorophenyl)-5-fluoro-N2-(1-n-propylindazol-6-yl)-2,4-pyrimidinediamine]
CCCn1ncc2ccc(Nc3ncc(F)c(Nc4ccc5c(c4)NC(=O)C(C)(C)O5)n3)cc21 [Compound 708, N4-(2,2-Dimethyl-3-oxo-4H-benz[1,4]oxazin-6-yl)-5-fluoro-N2-(1-n-propylindazol-6-yl)-2,4-pyrimidinediamine]
CCCn1ncc2ccc(Nc3ncc(F)c(Nc4ccc(F)c(OC)c4)n3)cc21 [Compound 709, 5-Fluoro-N4-(4-fluoro-3-methoxyphenyl)-N2-(1-n-propylindazol-6-yl)-2,4-pyrimidinediamine]
CCCCn1ncc2cc(Nc3ncc(F)c(Nc4ccc5c(c4)NC(=O)C(C)(C)O5)n3)ccc21 [Compound 712, N2-(1-n-Butylindazol-5-yl)-N4-(2,2-dimethyl-3-oxo-4H-benz[1,4]oxazin-6-yl)-5-fluoro-2,4-pyrimidinediamine]
CCCCn1ncc2cc(Nc3ncc(F)c(Nc4ccc(F)c(OC)c4)n3)ccc21 [Compound 713, N2-(1-n-Butylindazol-5-yl)-5-fluoro-N4-(4-fluoro-3-methoxyphenyl)-2,4-pyrimidinediamine]
CCCCn1ncc2ccc(Nc3ncc(F)c(Nc4ccc(OC)c(Cl)c4)n3)cc21 [Compound 714, N2-(1-n-Butylindazol-6-yl)-N4-(3-chloro-4-methoxyphenyl)-5-fluoro-2,4-pyrimidinediamine]
CCCCn1ncc2ccc(Nc3ncc(F)c(Nc4ccc5c(c4)NC(=O)C(C)(C)O5)n3)cc21 [Compound 716, N2-(1-n-Butylindazol-6-yl)-N4-(2,2-dimethyl-3-oxo-4H-benz[1,4]oxazin-6-yl)-5-fluoro-2,4-pyrimidinediamine]
CC1(C)Oc2ccc(Nc3nc(Nc4ccc5c(cnn5CC5CCCCC5)c4)ncc3F)cc2NC1=O [Compound 720, N2-[1-(Cyclohexylmethyl)indazol-5-yl]-N4-(2,2-dimethyl-3-oxo-4H-benz[1,4]oxazin-6-yl)-5-fluoro-2,4-pyrimidinediamine]
COc1ccc(Nc2nc(Nc3ccc4cnn(CC5CCCCC5)c4c3)ncc2F)cc1Cl [Compound 722, N4-(3-Chloro-4-methoxyphenyl)-N2-[1-(cyclohexylmethyl)indazol-6-yl]-5-fluoro-2,4-pyrimidinediamine]
CC1(C)Oc2ccc(Nc3nc(Nc4ccc5cnn(CC6CCCCC6)c5c4)ncc3F)cc2NC1=O [Compound 724, N2-[1-(Cyclohexylmethyl)indazol-6-yl]-N4-(2,2-dimethyl-3-oxo-4H-benz[1,4]oxazin-6-yl)-5-fluoro-2,4-pyrimidinediamine]
CC1(C)Oc2ccc(Nc3nc(Nc4ccc5c(cnn5CC5CCC5)c4)ncc3F)cc2NC1=O [Compound 728, N2-[1-(Cyclobutylmethyl)indazol-5-yl]-N4-(2,2-dimethyl-3-oxo-4H-benz[1,4]oxazin-6-yl)-5-fluoro-2,4-pyrimidinediamine]

Same assay, conditions: low cell density CHMC, IgE activation, tryptase, 3 pt; read-out: LD Tryptase, CHMC, IgE, 3 pt

IC50, > 10 µM:
COC(=O)CN1C(=O)C(C)(C)Oc2ccc(Nc3ccnc(Nc4ccc5c(n4)N(CC(=O)OC)C(=O)C(C)(C)O5)n3)nc21 [Compound 688, N2,N4-Bis (2,2-dimethyl-4-carbomethoxymethyl-3-oxo-5-pyrid[1,4]oxazin-6-yl)-2,4-pyrimidinediamine]

IC50, < 10 µM:
COC(=O)CN1C(=O)C(C)(C)Oc2ccc(N(CC(=O)OC)c3nc(Nc4cc(OC)c(OC)c(OC)c4)ncc3F)nc21 [Compound 691, N4-(2,2-Dimethyl-4-carbomethoxymethyl-3-oxo-5-pyrid[1,4]oxazin-6-yl)-5-fluoro-N4-carbomethoxymethyl-N2-(3,4,5-trimethoxyphenyl)-2,4-pyrimidinediamine]
COc1cc(Nc2ncc(F)c(Nc3ccc4c(n3)NC(=O)C(C)(C)O4)n2)cc(OC)c1OCCN1CCOCC1 [Compound 692, N2-[3,5-Dimethoxy-4-(2-(N-morpholino)ethyloxo)phenyl]-N4-(2,2-dimethyl-3-oxo-4H-5-pyrid[1,4]oxazin-6-yl)-5-fluoro-2,4-pyrimidinediamine]
CC1(C)Oc2ccc(Nc3ncc(F)c(Nc4ccc5c(n4)NC(=O)C(C)(C)O5)n3)nc2NC1=O [Compound 693, N2, N4-Bis (2,2-dimethyl-3-oxo-4H-5-pyrid[1,4]oxazin-6-yl)-5-fluoro-2,4-pyrimidinediamine]

Same assay, conditions: low cell density CHMC, IgE activation, tryptase, 8 pt; read-out: LD Tryptase, CHMC, IgE, 8 pt

IC50, < 10 µM:
COc1cc(Nc2ncc(F)c(Nc3ccc4c(n3)N(C)C(=O)C(C)(C)O4)n2)cc(OC)c1OC [Compound 689, 5-Fluoro-N4-(3-oxo-2,2,4-trimethyl-5-pyrid[1,4]oxazin-6-yl)-N2-(3,4,5-trimethoxyphenyl)-2,4-pyrimidinediamine]
COC(=O)CN1C(=O)C(C)(C)Oc2ccc(Nc3nc(Nc4cc(OC)c(OC)c(OC)c4)ncc3F)nc21 [Compound 690, N4-(2,2-Dimethyl-4-carbomethoxymethyl-3-oxo-5-pyrid[1,4]oxazin-6-yl)-5-fluoro-N2-(3,4,5-trimethoxyphenyl)-2,4-pyrimidinediamine]
COc1cc(Nc2ncc(F)c(Nc3ccc4c(n3)NC(=O)C(C)(C)O4)n2)cc(OC)c1OCCN1CCOCC1 [Compound 692, N2-[3,5-Dimethoxy-4-(2-(N-morpholino)ethyloxo)phenyl]-N4-(2,2-dimethyl-3-oxo-4H-5-pyrid[1,4]oxazin-6-yl)-5-fluoro-2,4-pyrimidinediamine]
COc1cc(Nc2nc(Nc3ccc4c(cnn4CC4CCC4)c3)ncc2F)ccc1F [Compound 729, N2-[1-(Cyclobuylmethyl)indazol-5-yl)-5-fluoro-N4-(4-fluoro-3-methoxyphenyl)-2,4-pyrimidinediamine]
